Reference: paper PMC9241669, “Allantodapsone is a Pan-Inhibitor of Staphylococcus aureus Adhesion to Fibrinogen, Loricrin, and Cytokeratin 10” (Microbiology Spectrum, 2022)

Molecular target: recombinant ClfB N2N3 (Staphylococcus aureus, UniProt O86476)
Assay: ELISA of recombinant ClfB N2N3 binding to immobilized GST-L2v loricrin
Parameters: species or system S. aureus
Conditions: allantodapsone 100 μM; ClfB 5 μM; P < 0.0001
Description: FIG 4 Allantodapsone inhibits S. aureus adhesion to loricrin and cytokeratin 10. Dose-response curve for adhesion of S. aureus Newman to GST-L2v loricrin (A) and CK10 (C). (B) Inhibition of recombinant ClfB N2N3 binding to immobilized GST-L2v loricrin by allantodapsone. (D) Inhibition of S. aureus Newman adhesion to GST-L2v loricrin by allantodapsone derivatives. Purified GST-L2v or CK10 were used to coat plates at 4°C overnight. Wells were washed with PBS and blocked with 1% BSA. Washed bacteria (OD600 of 1) were mixed with allantodapsone or vehicle control before being added to the wells and incubated for 2 h at 37°C. Adherent cells were washed, fixed, and stained with crystal violet, and wells further washed. The dye was dissolved in acetic acid, and the absorbance measured at 570 nm. GST-L2v was used at 20 μM in A and D. CK10 was used at 10 nM. […] Bound ClfB was detected using peroxidase-conjugated anti-His monoclonal antibody in an ELISA. […]
Recombinant GST-tagged L2v loricrin (120 nM) was coated onto a microtiter plate (Nunc Maxisorb) in sodium carbonate buffer (15 mM Na2CO3, 35 mM NaHCO3, pH 9.6) for 16 h at 4°C. […] Bound ClfB was detected with peroxidase-conjugated anti-His monoclonal antibody in 1% (wt/vol) skimmed milk proteins in PBS. […] The reaction was stopped by the addition of 2 M H2S0_4 (50 μL/well), and the A450 was measured in a plate reader (Labsystems).

recombinant ClfB N2N3, sequence (O86476 201-542): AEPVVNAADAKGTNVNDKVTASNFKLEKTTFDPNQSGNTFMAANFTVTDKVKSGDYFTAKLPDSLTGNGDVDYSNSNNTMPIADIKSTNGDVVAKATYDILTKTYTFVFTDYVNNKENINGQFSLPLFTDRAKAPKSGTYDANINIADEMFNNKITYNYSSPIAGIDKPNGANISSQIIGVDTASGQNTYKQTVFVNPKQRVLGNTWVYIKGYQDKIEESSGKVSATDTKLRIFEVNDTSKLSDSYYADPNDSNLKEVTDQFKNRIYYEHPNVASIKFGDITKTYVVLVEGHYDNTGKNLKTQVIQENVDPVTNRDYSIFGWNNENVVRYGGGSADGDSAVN

Nc1ccc(S(=O)(=O)c2ccc(NCN3C(=O)NC(=O)C(=O)C3=O)cc2)cc1 [Allantodapsone]
inhibition of recombinant ClfB binding to L2v loricrin: inhibited
